“Also recorded” adds a separate entry of the source. Square brackets hold non-standard residues; d marks the D form. Peptide text beside a SMILES is read from it.

The test system of one test is small α-syn PFF. As to the kind of experiment: Western blot of small α-syn PFF. It is filed as biochemical. To be noted: 200 nM PFF with 250, 500, 750, 1000 nM SVD-1a, 72 h, 37 °C; antibody Syn211. Here is the method: Samples of 200 nM small α-syn PFF or α-syn monomer were incubated with 0, 250, 500, 750 and 1000 nM SVD-1a for 72 h at 37 °C in PBS pH 7.4 with 0.05% sodium azide. Samples were then resolved via SDS–PAGE on 12% TGX gels (Bio-Rad, Hercules, USA) using the Mini-PROTEAN Tetra Cell (Bio-Rad, Hercules, USA). Proteins were transferred to a PVDF membrane (0.2 µm pore size) (Trans-Blot Turbo Mini PVDF Transfer Pack, Bio-Rad, Hercules, USA) at 25 V, 1.3 A for 7 min. Blocking of the membrane was carried out with 2% nonfat dried milk powder in TBS + 0.05% Tween 20 for 1 h at room temperature. Anti-α-synuclein antibody Syn211 (RRID:AB_628318, Santa Cruz Biotechnology, Dallas, TX, USA) was used as primary antibody at a concentration of 1 µg/ml in TBS-T for 1 h at RT. As a secondary antibody, an HRP-coupled goat anti-mouse IgG (RRID:AB_228307, Thermo Fisher Scientific, Waltham, MA, USA) was used at 0.2 µg/ml in TBS-T for 1 h at RT. […]
Supplementary Figure 11: Western blot of small α-syn PFF samples incubated with SVD-1a. […] A PFF and monomer sample that were incubated without SVD-1a served as controls. α-Syn was detected with Syn211. A prominent monomer band was present between the 15 kDa- and 20 kDa marker bands, detected with shorter exposure time (left). […] In the upper part of the blot, above the marker range, PFFs were detected using longer exposure time due to weaker signal (right).

Another test has as its system α-syn monomer. As to the kind of experiment: SDS–PAGE of fractionated de novo aggregation samples. It is filed as biochemical. To be noted: 10 µM α-syn, 5, 10, 20 µM SVD-1a, 7 days, silver staining. Here is the method: For small PFF pre incubation with or without SVD-1a (Fig. 4) samples were pre-incubated at 37 °C and 600 rpm for 72 h in PBS pH 7.4 with 0.05% sodium azide using protein low binding reaction tubes in a thermos shaker (Eppendorf GmbH, GE). For de novo aggregation analysis, each replicate was pre-incubated in PBS pH 7.4 with 0.05% sodium azide in a 96-well non-binding half-area plate (Corning, USA) in a FLUOStar platereader (BMG labtech, GE) with 300 rpm continuous orbital shaking in between reads, adding one borosilicate bead per well (d = 3 mm, Hilgenberg, GE, n = 7). 10 µM α-syn monomer was incubated with or without 5, 10 or 20 µM SVD-1a for 7 days. […] The α-syn concentration of the samples was then quantified using an α-syn-specific kit (Human α-Synuclein (Colorimetric), 448607, BioLegend, USA). […]
Supplementary Fig. 20: SDS-PAGE analysis of de novo aggregation samples at incubation endpoint in presence or absence of SVD-1a. 10 µM α-syn monomer was incubated with or without 5, 10 or 20 µM SVD-1a for 7d in a 96-well non-binding half-area plate (Corning, USA) in a FLUOStar platereader (BMG labtech, GE) with 300 rpm continuous orbital shaking in between reads adding one borosilicate bead per well (d = 3 mm, Hilgenberg, GE, n = 7). […] Retentate and flow through samples were analyzed using SDS-PAGE with silver staining. […]

As to `CC[C@@H](C)[C@@H](NC(=O)[C@@H](Cc1c[nH]cn1)NC(=O)[C@@H](CCC(=O)O)NC(=O)[C@@H](CCC(N)=O)NC(=O)[C@@H](Cc1c[nH]c2ccccc12)NC(=O)[C@@H](Cc1ccc(O)cc1)NC(=O)[C@H](NC(=O)[C@@H](CCC(=O)O)NC(=O)[C@@H](Cc1c[nH]cn1)NC(=O)[C@H](NC(=O)[C@H]1CCCN1C(=O)[C@@H](CC(C)C)NC(=O)[C@H](N)CCCNC(=N)N)[C@H](C)O)[C@H](C)O)C(=O)N[C@H](Cc1c[nH]c2ccccc12)C(=O)N[C@H](Cc1c[nH]cn1)C(=O)N[C@H](C)C(=O)N[C@H](CCCNC(=N)N)C(=O)N[C@H](CCCNC(=N)N)C(=O)N[C@H](CCCNC(=N)N)C(=O)N[C@H](CCCNC(=N)N)C(=O)N[C@H](CCCNC(=N)N)C(N)=O` [SVD-1a] (H-[dR][dL][dP][dT][dH][dE][dT][dY][dW][dQ][dE][dH][dI][dW][dH][dA][dR][dR][dR][dR][dR]-NH2), the “intensity of higher MW α-syn bands” value in the test with small α-syn PFF is “progressively reduced in presence of higher SVD-1a concentrations”. Moreover, the “aggregate band in retentate / shift to flow-through” value in the test with α-syn monomer is given as “a progressive shift of α-syn from the retentate to the flow-through is observed; also recorded: the aggregate band intensity was substantially diminished”.

The values above are taken from paper PMC12454639, “Direct disassembly of α-syn preformed fibrils into α-syn monomers by an all-D-peptide” (NPJ Parkinson's Disease, 2025).
